For 20 molecules, IC50 results are on record in PubChem BioAssay AID504763 (Sanford-Burnham Center for Chemical Genomics, 2011).

Active and inactive are the calls of the source. The rule behind the calls is not given here.

In this assay the target is Hexokinase-1 (Homo sapiens) (UniProt P19367). The experiment in a line: hexokinase 1 inhibition, dose response, selectivity assay for HKDC1 inhibitor project, biochemical (AID 504763). Conditions: HK1 enzyme selectivity assay.
Sequence of Hexokinase-1 (Homo sapiens) (P19367 whole entry, looked up): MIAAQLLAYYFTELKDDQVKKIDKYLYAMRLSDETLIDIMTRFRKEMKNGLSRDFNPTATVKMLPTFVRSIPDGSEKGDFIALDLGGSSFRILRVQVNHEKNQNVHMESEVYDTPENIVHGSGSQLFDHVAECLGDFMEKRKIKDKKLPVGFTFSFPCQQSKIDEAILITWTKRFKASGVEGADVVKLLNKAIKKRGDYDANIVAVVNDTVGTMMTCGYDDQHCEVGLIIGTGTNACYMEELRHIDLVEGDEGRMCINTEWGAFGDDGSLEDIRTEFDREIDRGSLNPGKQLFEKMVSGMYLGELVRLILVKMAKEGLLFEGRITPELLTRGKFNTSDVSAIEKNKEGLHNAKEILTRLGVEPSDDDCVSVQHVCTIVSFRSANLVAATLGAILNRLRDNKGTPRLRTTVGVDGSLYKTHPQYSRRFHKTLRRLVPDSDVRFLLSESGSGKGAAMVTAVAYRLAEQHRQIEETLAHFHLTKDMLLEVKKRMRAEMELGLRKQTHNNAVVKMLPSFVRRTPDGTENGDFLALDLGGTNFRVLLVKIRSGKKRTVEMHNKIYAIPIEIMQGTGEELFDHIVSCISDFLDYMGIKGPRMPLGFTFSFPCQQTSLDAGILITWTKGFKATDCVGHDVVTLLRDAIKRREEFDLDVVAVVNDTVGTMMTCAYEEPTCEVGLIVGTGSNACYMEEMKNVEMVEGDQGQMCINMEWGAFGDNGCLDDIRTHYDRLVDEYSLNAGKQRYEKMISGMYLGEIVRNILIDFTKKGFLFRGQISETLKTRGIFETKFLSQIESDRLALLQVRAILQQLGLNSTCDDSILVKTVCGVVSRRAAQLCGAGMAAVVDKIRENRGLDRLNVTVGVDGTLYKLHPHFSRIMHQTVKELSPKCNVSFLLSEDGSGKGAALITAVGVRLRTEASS
As to `CC1COCC(C)N1C1=C(Cl)C(=O)c2ccccc2C1=O` (stereo not given), the IC50 (in general, the concentration that inhibits the measured activity by half) was > 80 µM (inactive). The same measure for `COc1ccc(CN2C(=O)c3cccnc3C2O)cc1` (stereo not given): > 80 µM (inactive); for `O=C(NCCc1ccccc1)c1cnn2c(C(F)F)cc(C3CC3)nc12`: 5.54 µM; for `N#C/C(=C(/O)CCl)c1nc2c(s1)CCc1ccccc1-2`: “inactive”. The result for `COCc1cc(C2C(C(=O)c3ccco3)=C(O)C(=O)N2CCOCCO)ccc1O` (stereo not given) reads > 80 µM (inactive); that for `O=[N+]([O-])c1ccc(NN=Cc2ccc(O)cc2O)nc1`, > 80 µM (inactive).

Take `COC1(NS(=O)(=O)c2ccc(Br)cc2)C(C)=CC(=O)C=C1C`: the IC50 was > 80 µM (inactive). The result for `Cc1ccc(NC2c3ncccc3C(=O)N2c2ccccc2C)cc1C` (stereo not given) reads > 80 µM (inactive); that for `Cc1ccc(N=Cc2cc(Cc3ccccc3Cl)cc([N+](=O)[O-])c2O)c(O)c1`, > 80 µM (inactive); that for `COCC(=O)OC1CCn2c1nc1c2C(=O)C(C)=C(NC(C)=O)C1=O` (stereo not given), 2.15 µM. With `CCCc1nc2c(c(=O)c3ccccc3n2C)c(=O)n1-c1ccc(F)cc1`, the half-inhibitory concentration (IC50) was 6.47 µM. The result for `O=C(CNC(=O)/C=C/c1ccco1)N=Nc1c(O)[nH]c2ccccc12` reads > 80 µM (inactive); that for `Cc1cccc2c(N=NC(=O)c3ccc(NS(=O)(=O)c4cccs4)cc3)c(O)[nH]c12`, “inactive”. The same measure for `C=CCn1c(SCC(=O)Nc2sc3c(c2C#N)CCC(C)C3)nc2cc(C(=O)O)ccc2c1=O` (stereo not given): > 80 µM (inactive); for `Oc1ccc(/C=N/Nc2ncc(Br)cn2)c(O)c1`: > 80 µM (inactive). The same measure for `Cc1nc2c(O)c3c(c(O)c2nc1C)C1C=CC3CC1`: 2.08 µM.

Take `CC(NC1=CC(=O)c2cccnc2C1=O)C(O)c1ccccc1` (stereo not given): the IC50 result was “inactive”. The same measure for `COc1cc(/C=C(\C#N)c2nc3ccc(C)cc3[nH]2)cc([N+](=O)[O-])c1O`: 18 µM; for `O=C1C(Cl)=C(NCCc2ccccc2)C(=O)c2ccccc21`: 18.5 µM. As to `Cc1cccc(C)c1Nc1nnc(SCc2cn3cccc(C)c3n2)s1`, the IC50 is > 80 µM (inactive).
